Experimental data published in US10906873B2, “Substituted cyclic amides as herbicides” (FMC Corporation, priority 2015, dated 2021).

Legend:
Type in all cases: in vivo
[1] = tested on: barnyardgrass (Echinochloa crus-galli); experiment: Test A preemergence, barnyardgrass; conditions: 0 to 100 scale
Summary of the method: (§1)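 Pre: seeds planted in loam/sand, directed soil spray. Post: 2–10 cm plants, 1–2 leaf. Formulation: non-phytotoxic solvent + surfactant. Greenhouse ~10 d; visual injury vs untreated, 0 = no effect, 100 = complete control.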

[2] = tested on: ragweed (common ragweed, Ambrosia elatior); experiment: Test A preemergence, ragweed; conditions: 0 to 100 scale
Summary of the method: as §1

kochia (Kochia scoparia) [3] = experiment: Test A preemergence, kochia; conditions: 0 to 100 scale
Summary of the method: as §1

kochia (Kochia scoparia) [4] = experiment: Test A postemergence, kochia; conditions: 0 to 100 scale
Summary of the method: as §1

[5] = tested on: foxtail, giant (giant foxtail, Setaria faberii); experiment: Test A preemergence, foxtail, giant; conditions: 0 to 100 scale
Summary of the method: as §1

[6] = tested on: blackgrass (Alopecurus myosuroides); experiment: Test A postemergence, blackgrass; conditions: 0 to 100 scale
Summary of the method: as §1

[7] = tested on: barnyardgrass (Echinochloa crus-galli); experiment: Test B flooded paddy test, barnyardgrass; conditions: Flood, 250 g ai/ha; scale of 0 to 100 where 0 is no effect and 100 is complete control; 13 to 15 d
Summary of the method: (§2)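 Ratings use a 0-100 visual scale, where 100 is complete control, and compare treated plants with controls after 13 to 15 d of greenhouse growth. Compound went straight into paddy water kept 3 cm over the soil surface, applied to seedlings at the 2-leaf stage.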

rice (Oryza sativa) = experiment: Test B flooded paddy test, rice; conditions: Flood, 250 g ai/ha; scale of 0 to 100 where 0 is no effect and 100 is complete control; 13 to 15 d
Summary of the method: as §2

[8] = tested on: galium (catchweed bedstraw, Galium aparine); experiment: Test A postemergence, galium; conditions: 0 to 100 scale
Summary of the method: as §1

[9] = tested on: barnyardgrass (Echinochloa crus-galli); experiment: Test A postemergence, barnyardgrass; conditions: 0 to 100 scale
Summary of the method: as §1

[10] = tested on: ducksalad (Heteranthera limosa); experiment: Test B flooded paddy test, ducksalad; conditions: Flood, 250 g ai/ha; scale of 0 to 100 where 0 is no effect and 100 is complete control; 13 to 15 d
Summary of the method: as §2

[11] = tested on: pigweed (Amaranthus retroflexus); experiment: Test A postemergence, pigweed; conditions: 0 to 100 scale
Summary of the method: as §1

[12] = tested on: wheat (Triticum aestivum); experiment: Test A postemergence, wheat; conditions: 0 to 100 scale
Summary of the method: as §1

[13] = tested on: ryegrass, It. (Italian ryegrass, Lolium multiflorum); experiment: Test A preemergence, ryegrass, It.; conditions: 0 to 100 scale
Summary of the method: as §1

[14] = tested on: sedge, umbrella (small-flower umbrella sedge, Cyperus difformis); experiment: Test B flooded paddy test, sedge, umbrella; conditions: Flood, 250 g ai/ha; scale of 0 to 100 where 0 is no effect and 100 is complete control; 13 to 15 d
Summary of the method: as §2

[15] = tested on: ragweed (common ragweed, Ambrosia elatior); experiment: Test A postemergence, ragweed; conditions: 0 to 100 scale
Summary of the method: as §1

[16] = tested on: pigweed (Amaranthus retroflexus); experiment: Test A preemergence, pigweed; conditions: 0 to 100 scale
Summary of the method: as §1

[17] = tested on: foxtail, giant (giant foxtail, Setaria faberii); experiment: Test A postemergence, foxtail, giant; conditions: 0 to 100 scale
Summary of the method: as §1

[18] = tested on: ryegrass, It. (Italian ryegrass, Lolium multiflorum); experiment: Test A postemergence, ryegrass, It.; conditions: 0 to 100 scale
Summary of the method: as §1

corn (Zea mays) = experiment: Test A postemergence, corn; conditions: 0 to 100 scale
Summary of the method: as §1

| SMILES | Plant response rating, Barnyardgrass ([1]; 125 g ai/ha) | Plant response rating, Barnyardgrass ([1]; 500 g ai/ha) | Plant response rating, Ragweed ([2]; 125 g ai/ha) | Plant response rating, Ragweed ([2]; 500 g ai/ha) | Plant response rating, Kochia (kochia (Kochia scoparia) [3]; 125 g ai/ha) | Plant response rating, Kochia (kochia (Kochia scoparia) [3]; 500 g ai/ha) | Plant response rating, Kochia (kochia (Kochia scoparia) [4]; 125 g ai/ha) | Plant response rating, Kochia (kochia (Kochia scoparia) [4]; 500 g ai/ha) | Plant response rating, Foxtail, Giant ([5]; 125 g ai/ha) | Plant response rating, Foxtail, Giant ([5]; 500 g ai/ha) | Plant response rating, Blackgrass ([6]; 125 g ai/ha) | Plant response rating, Blackgrass ([6]; 500 g ai/ha) | Plant response rating, Barnyardgrass [7] | Plant response rating, Rice (rice (Oryza sativa)) | Plant response rating, Galium ([8]; 125 g ai/ha) | Plant response rating, Galium ([8]; 500 g ai/ha) | Plant response rating, Barnyardgrass ([9]; 125 g ai/ha) | Plant response rating, Barnyardgrass ([9]; 500 g ai/ha) | Plant response rating, Ducksalad [10] | Plant response rating, Pigweed ([11]; 125 g ai/ha) | other results |
| --- | --- | --- | --- | --- | --- | --- | --- | --- | --- | --- | --- | --- | --- | --- | --- | --- | --- | --- | --- | --- | --- |
| O=C1NCC(C#Cc2cccc(Cl)c2)C1C(=O)Nc1ccc(F)c(F)c1F (stereo not drawn) [Compound 26] | 0 | 70 | 0 | 0 | 0 | 0 | 0 | 0 | 0 | 70 | 0 | 0 | 0 | 0 | 0 | 0 | 0 | 60 | 75 | 0 | Plant response rating, Pigweed ([11]; 500 g ai/ha): 0; Plant response rating, Wheat ([12]; 125 g ai/ha): 0; Plant response rating, Wheat ([12]; 500 g ai/ha): 0; Plant response rating, Ryegrass, It. ([13]; 125 g ai/ha): 0; Plant response rating, Ryegrass, It. ([13]; 500 g ai/ha): 0; Plant response rating, Sedge, Umbrella [14]: 0; Plant response rating, Ragweed ([15]; 125 g ai/ha): 0; Plant response rating, Ragweed ([15]; 500 g ai/ha): 0; Plant response rating, Pigweed ([16]; 125 g ai/ha): 0; Plant response rating, Pigweed ([16]; 500 g ai/ha): 40; Plant response rating, Foxtail, Giant ([17]; 125 g ai/ha): 0; Plant response rating, Foxtail, Giant ([17]; 500 g ai/ha): 40; Plant response rating, Ryegrass, It. ([18]; 125 g ai/ha): 0; Plant response rating, Ryegrass, It. ([18]; 500 g ai/ha): 0; Plant response rating, Corn (corn (Zea mays); 125 g ai/ha): 0; Plant response rating, Corn (corn (Zea mays); 500 g ai/ha): 0 |
| Cc1cccc(C#CC2CNC(=O)C2C(=O)Nc2ccc(F)c(F)c2F)c1 (stereo not drawn) [Compound 23] | 60 | 80 | 0 | 0 | 0 | 0 | 0 | 20 | 40 | 80 | 0 | 0 | 0 | 0 | 0 | 20 | 20 | 50 | 0 | 0 | Plant response rating, Pigweed ([11]; 500 g ai/ha): 0; Plant response rating, Wheat ([12]; 125 g ai/ha): 0; Plant response rating, Wheat ([12]; 500 g ai/ha): 0; Plant response rating, Ryegrass, It. ([13]; 125 g ai/ha): 0; Plant response rating, Ryegrass, It. ([13]; 500 g ai/ha): 0; Plant response rating, Sedge, Umbrella [14]: 0; Plant response rating, Ragweed ([15]; 125 g ai/ha): 0; Plant response rating, Ragweed ([15]; 500 g ai/ha): 0; Plant response rating, Pigweed ([16]; 125 g ai/ha): 0; Plant response rating, Pigweed ([16]; 500 g ai/ha): 0; Plant response rating, Foxtail, Giant ([17]; 125 g ai/ha): 20; Plant response rating, Foxtail, Giant ([17]; 500 g ai/ha): 50; Plant response rating, Ryegrass, It. ([18]; 125 g ai/ha): 0; Plant response rating, Ryegrass, It. ([18]; 500 g ai/ha): 0; Plant response rating, Corn (corn (Zea mays); 125 g ai/ha): 0; Plant response rating, Corn (corn (Zea mays); 500 g ai/ha): 0 |
